Several values for one entry are separate records, joined by “and”; a condition that tells them apart may be missing. Equal values may be shown once. Read-outs that look alike come from different tables or passages of the source.

In this assay the target is T1, Human TLR7 (Homo sapiens, UniProt Q9NYK1).
T1 construct: stably and individually express human TLR4, TLR7 or TLR9 full-length ORF cDNAs; host or cells: HEK-293 (ATCC) with ELAM-1 NF-kappaB luciferase reporter
T1 sequence (Q9NYK1 27-1049): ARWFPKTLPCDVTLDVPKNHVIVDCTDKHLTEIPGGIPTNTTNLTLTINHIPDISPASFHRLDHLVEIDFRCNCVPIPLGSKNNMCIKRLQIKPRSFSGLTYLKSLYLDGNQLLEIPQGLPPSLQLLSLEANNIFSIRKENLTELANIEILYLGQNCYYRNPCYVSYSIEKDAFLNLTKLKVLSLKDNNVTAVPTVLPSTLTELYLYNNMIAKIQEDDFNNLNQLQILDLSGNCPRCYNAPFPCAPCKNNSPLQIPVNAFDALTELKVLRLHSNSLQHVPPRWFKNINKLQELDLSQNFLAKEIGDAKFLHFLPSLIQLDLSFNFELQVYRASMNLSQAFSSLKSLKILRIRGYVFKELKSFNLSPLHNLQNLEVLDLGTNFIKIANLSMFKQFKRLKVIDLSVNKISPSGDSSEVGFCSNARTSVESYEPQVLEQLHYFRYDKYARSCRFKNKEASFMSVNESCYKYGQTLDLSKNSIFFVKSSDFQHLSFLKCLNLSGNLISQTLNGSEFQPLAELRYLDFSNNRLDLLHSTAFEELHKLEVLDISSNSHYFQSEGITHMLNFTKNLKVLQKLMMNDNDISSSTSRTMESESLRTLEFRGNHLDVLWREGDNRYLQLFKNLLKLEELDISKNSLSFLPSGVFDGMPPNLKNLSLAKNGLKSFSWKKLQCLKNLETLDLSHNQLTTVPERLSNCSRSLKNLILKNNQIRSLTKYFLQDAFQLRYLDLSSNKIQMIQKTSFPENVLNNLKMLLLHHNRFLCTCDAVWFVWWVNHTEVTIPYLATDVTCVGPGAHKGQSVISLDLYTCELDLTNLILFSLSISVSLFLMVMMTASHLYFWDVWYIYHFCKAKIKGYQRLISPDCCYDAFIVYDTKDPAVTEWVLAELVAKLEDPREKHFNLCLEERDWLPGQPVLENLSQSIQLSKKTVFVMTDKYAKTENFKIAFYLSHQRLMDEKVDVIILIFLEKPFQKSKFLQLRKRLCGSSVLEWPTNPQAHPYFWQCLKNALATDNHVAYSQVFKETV
Briefly: HEK-293 human TLR7 NF-kappaB luciferase reporter assay (CL097). It counts as cell-based. The method, then: Effects on mouse TLR7 were also compared. Cells were stimulated overnight with TLR7/8 agonist CL097 at pre-determined ED70-80: 3 ug/ml for HEK-hTLR7, 1.5 ug/ml for HEK-mTLR7 and 12 ug/ml for HEK-hTLR8, before reading luminescence intensity. Three tests were performed and IC50 value was determined using Graphpad Prism 6 nonlinear regression curve fit.
HEK-293 cells (ATCC) were engineered to stably express a NF-kappaB transcription factor inducible E-selectin (ELAM-1) luciferase reporter derived from the plasmid pGL3 (Promega) containing base pairs −2241 bp to −254 bp from the promoter of the human E-selectin gene (Accession No. NM_000450). These cells were then subsequently engineered to stably and individually express human TLR4, TLR7 or TLR9 full-length ORF cDNAs. Human TLR4 cDNA (Accession No. NM_138554) was cloned into pcDNA 3.0 expression vector (Invitrogen). TLR4 transfected cells were also engineered to express human MD-2 co-receptor [MD-2 cDNA (Accession No. NM_015364) was cloned into the pEF-BOS vector] and were supplemented with 10 nM soluble CD14 (R&D Systems) in the media to optimize LPS responsiveness. Human TLR9 cDNA (Accession No. NM_017442) was cloned into the pBluescript II KS vector (Agilent). Human TLR7 cDNA (Accession No. NM_016562) was obtained from OriGene. HEK-293 cells stably expressing human TLR8 (Accession No. NM_138636) or mouse TLR7 (Accession No. NM_133211) were purchased from InvivoGen and were then stably transfected with pNiFty2(NF-kappaB)-luciferase reporter plasmid (InvivoGen). Each cell type was plated in Dulbecco's modified Eagle's medium (DMEM) containing 10% fetal bovine serum (FBS) at a density of 2.22×10^5 cells/ml into a 384-well plate and incubated for 2 days at 37° C., 5% CO2. Varying concentrations of antagonist compounds were then added. Cells were then incubated for another 30 minutes before adding the appropriate TLR agonist as follows (final concentrations indicated): lipopolysaccharide (LPS; Sigma) at 10 ng/ml for TLR4, CL097 (InvivoGen) at 3 ug/ml for human TLR7 and TLR8 and mouse TLR7, and CvG-2006-2A [sequence: […] (SEQ ID NO: 1) with phosphorothioate backbone, synthesized by Sigma-Aldrich] at 0.6 uM for TLR9.
(In general: Reporter assays use an easily measured gene product as a stand-in for the process of interest.)

Turning to `C[C@@H]1CN(c2ccc(C#N)c3ncccc23)C[C@H](C(=O)N[C@H]2CNC[C@H]2F)O1.Cl` [ER-899742, (2R,6R)-4-(8-cyanoquinolin-5-yl)-N-[(3S,4R)-4-fluoropyrrolidin-3-yl]-6-methylmorpholine-2-carboxamide hydrochloride], the IC50 reads like this: (IC50, HEK-293, ligand CL097, analyte NFkB-luciferase (Table 1)) 6 nM; (IC50, HEK-hTLR7, CL097 3 ug/ml, individual tests 1-3) 23 nM and 26 nM; (IC50 average, HEK-hTLR7, CL097 3 ug/ml, average of three tests) 24 nM.
`CCN(CCO)CCCC(C)Nc1ccnc2cc(Cl)ccc12` (centres unmarked) [HCQ, hydroxychloroquine, reference compound]: the IC50 (HEK-hTLR7, CL097 3 ug/ml, average of three tests, read-out: IC50 average) turned out to be 9100 nM; the IC50 (HEK-hTLR7, CL097 3 ug/ml, individual tests 1-3, read-out: IC50) is 6800 nM and 14500 nM and 5950 nM.

By IC50 is commonly meant the concentration at which inhibition is half-maximal.

Source of the values: patent publication USRE47193E1, “Selectively substituted quinoline compounds” (EISAI R&D MANAGEMENT CO., LTD., priority 2013, dated 2019).
